The target of series [1] is T1, P. aeruginosa EF-Tu (Pseudomonas aeruginosa, UniProt P09591).
T1 construct: made in house; host or cells: E. coli Rosetta 2(DE3), pET101/D-TOPO
Kind of series: GDP exchange initial velocity assay (nitrocellulose filter binding). The note with it: for Km: EF-Tu 0.64 μM, 37°C, Lineweaver-Burk, read-out: KM for the interaction of EF-Tu with GDP. The series is classed as biochemical. As to the method:
Nitrocellulose filter binding assays were used to determine GDP exchange by EF-Tu as previously described. Assays to determine the initial velocity of GDP exchange were in buffer B (50 mM Tris-HCl, (pH 7.5), 50 mM NH4Cl, and 10 mM MgCl2, 1.0 mM dithiothreitol (DTT)) containing 12 μM [^3H]GDP (500 cpm/pmol). Reactions were incubated at 37°C and were stopped by diluting the reaction mix to 2 mL in buffer B and immediately filtered through nitrocellulose (Whatman; Protran BA 85). Filters were washed three times with 2 mL of buffer B and allowed to dry, and the amount of EF-Tu·[^3H]GDP complex retained was determined by scintillation counting (Beckman Coulter LS 6500). Initial velocity reactions were from 1 to 4 min, and GDP concentrations were varied as indicated.
Historically, the GDP exchange assay has been used to determine the activity of EF-Tu. […] The kinetic parameters KM and Vmax for the interaction of P. aeruginosa EF-Tu with GDP were determined by inserting the initial velocity data into Lineweaver-Burk plots (Figure 4(b)).

In the next series the test system is E. coli EF-Tu. Conditions: cited from earlier work.
For series [2], the target named is T1, P. aeruginosa EF-Tu. Kind of series: Equilibrium dissociation constants of EF-Tu·GDP and EF-Tu·GTP complexes (dilution, nitrocellulose filter binding). As to the method: Reactions were carried out to determine the equilibrium dissociation constants (K GDP and K GTP) for the interaction of P. aeruginosa EF-Tu with GDP and GTP. The reaction was carried out in buffer B containing 1.3 μM total P. aeruginosa EF-Tu and 12 μM [^3H]GDP (500 cpm/pmol) or [^3H]GTP (750 cpm/pmol). EF-Ts was added to 0.05 μM as indicated. To form EF-Tu·nucleotide complexes, the reactions were incubated for 2 h at 0°C. To determine the total amount of complex formed (defined as active amounts of EF-Tu), reactions were immediately filtered through nitrocellulose filters following incubation. Reactions to determine K GDP and K GTP were diluted by the addition of 5 mL of buffer B that had been preincubated at 37°C, 23°C, or 0°C. Incubation was continued at those temperatures after dilution for 10, 20, and 30 min, respectively. Remaining amounts of the complexes were determined by filtration through nitrocellulose filters.
The percentage of EF-Tu capable of exchanging GDP (active EF-Tu) was determined from assays described in Section 3.6 which measured the total EF-Tu·[^3H]GDP complexes formed. In these assays, saturating amounts of [^3H]GDP (12 μM) were incubated with EF-Tu on ice for 2 h, and the total labeled EF-Tu·[^3H]GDP complex was determined using nitrocellulose filter binding, which retained the complex but not free GDP. The maximum amount of EF-Tu·GDP complex observed would be equivalent to the concentration of EF-Tu capable of exchanging GDP. Approximately 50% of EF-Tu was capable of forming an EF-Tu·[^3H]GDP complex. In the subsequent experiments containing EF-Tu, the results were based on the concentration of active EF-Tu.
The equilibrium dissociation constants for the EF-Tu·GDP (K GDP) and EF-Tu·GTP (K GTP) complexes were calculated from measurements of the extent of dissociation of the complexes in dilute solutions. Both complexes were formed by incubation at […] for 2 h in 50 μL reactions (Section 3.3). […] To determine dissociation, the 50 μL reactions were diluted by addition of 5 mL of reaction mix (minus enzyme and nucleotide) that had been preincubated to 37°C, 23°C, or 0°C, and incubation was continued at these temperatures for 10, 20, and 30 min, respectively. These were the conditions used to determine the K GDP for interaction of E. coli EF-Tu with GDP, and we maintained the same conditions in the determination of the K GTP.
The concentration of complex immediately after dilution was approximately 6.0 × 10^−3 μM. After incubation, the remaining EF-Tu·GDP complex was determined. Total GDP was calculated as the amount of added [^3H]GDP plus GDP that had copurified with EF-Tu. Free GDP was the amount of total GDP minus complexes formed, and free EF-Tu was the amount of initial complex minus remaining complex. The equilibrium dissociation constants for the complexes were calculated using the following equation: (1) KGD/TP=[EF−Tufree][GD/TPfree]/[EF−Tu·GD/TP]. We observed KGDP values for EF-Tu that ranged from 30 to 75 nM in the absence of EF-Ts at the temperatures in which the EF-Tu·GDP complex was allowed to dissociate (Table 2). Previous studies to determine the KGDP governing the binding of GDP to EF-Tu in the E. coli system included EF-Ts in the assays, and therefore we also carried out assays to determine the KGDP in the presence of EF-Ts. There was no statistical change of the KGDP observed in the presence of EF-Ts (30 to 40 nM). These values are within 3-fold of that seen in the E. coli system in which the equilibrium dissociation constant (5 to 10 nM) was determined in the presence of EF-Ts.

Another series has as its system P. aeruginosa ribosomes. Kind of series: Poly(U)-dependent binding of Phe-tRNA^Phe ternary complex to the ribosomal A-site. The series is classed as biochemical, Pseudomonas aeruginosa. The note with it: 3.2 μM EF-Tu, 1 μM ribosomes, GDPNP. As to the method:
To determine ternary complex binding to the ribosome, a mixture containing 50 mM Tris-HCl, (pH 7.5), 0.1 mM spermine, 40 mM KCl, 4 mM MgCl2, 1.0 mM DTT, 0.3 mM GTP or guanosine 5′-[β,γ-imido]triphosphate (GDPNP), 0.15 mg/mL poly(U) mRNA, 0.06 μM P. aeruginosa EF-Ts, 3.2 μM EF-Tu, 1.0 μM P. aeruginosa ribosomes, and 0.75 μM [^3H]Phe-tRNA^Phe (25 cpm/pmol) was used. The concentration of EF-Tu was varied from 0.32 to 1.6 μM as indicated. All components were preincubated at 37°C for 15 min in the absence of ribosomes to allow ternary complex formation. Ribosomes were then added, and incubation was continued for an additional 15 min at the same temperature. The amounts of [^3H]Phe-tRNA^Phe bound to the ribosome, representing ternary complex, were analyzed using glass microfiber filter (Whatman) binding as previously described. Control reactions lacked either EF-Tu or ribosomes.
Aminoacylated tRNA is bound at the ribosomal A-site in a ternary complex. The amount of aminoacylated tRNAs that can be bound to the A-site of the ribosome in a ternary complex was measured using [^3H]Phe-tRNA^Phe in poly(U)-dependent assays. In the absence of poly(U), a basal level of ternary complex will bind to the ribosome. In these assays, GTP was replaced with the nonhydrolyzable analog GDPNP to prevent hydrolysis of the nucleotide and dissociation of EF-Tu. […]

Another series concerns the target Leu-tRNA^Leu and GTP (Pseudomonas aeruginosa, UniProt P09591). The note with it: 1.2 μM [3H]Leu-tRNA^Leu, 0.5 mM GTP, 15 min 4°C, RNase A.
The target of series [3] is Pseudomonas aeruginosa elongation factor Tu (Pseudomonas aeruginosa PAO1) (UniProt P09591).

Here are results for four molecules from PMC3747624, “Cloning and Characterization of EF-Tu and EF-Ts from Pseudomonas aeruginosa” (BioMed Research International, 2013).

Like-named read-outs stand apart in the source and are kept apart here.

T1 sequence (P09591 whole entry): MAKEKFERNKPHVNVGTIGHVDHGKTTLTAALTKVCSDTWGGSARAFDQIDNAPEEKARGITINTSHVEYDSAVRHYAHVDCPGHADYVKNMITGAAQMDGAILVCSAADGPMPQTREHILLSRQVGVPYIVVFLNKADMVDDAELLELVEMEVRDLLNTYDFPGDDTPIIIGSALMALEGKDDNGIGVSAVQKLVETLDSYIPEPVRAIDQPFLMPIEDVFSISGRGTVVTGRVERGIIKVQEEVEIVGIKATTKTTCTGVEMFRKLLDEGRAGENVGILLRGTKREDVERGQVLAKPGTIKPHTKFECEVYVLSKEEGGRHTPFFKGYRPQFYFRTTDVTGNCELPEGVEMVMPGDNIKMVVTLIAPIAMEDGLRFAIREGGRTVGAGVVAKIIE
Sequence of Pseudomonas aeruginosa elongation factor Tu (Pseudomonas aeruginosa PAO1) (P09591 whole entry): as above
Sequence of Leu-tRNA^Leu and GTP (P09591 whole entry): as above
Method for Leu-tRNA^Leu and GTP: Ternary complex formation was assayed by examining the ability of EF-Tu to protect [^3H]Leu-tRNA^Leu ) from digestion by RNase A [21, 22]. EF-Tu (0, 0.6, 0.9, 1.2, 1.5, 1.8, 2.1, and 2.4 μM) was incubated in reaction mixtures (50 μL) containing 1.2 μM [^3H]Leu-tRNA^Leu, 0.5 mM GTP, 50 mM Tris-HCl, (pH 7.5), 1 mM DTT, 50 mM NH4Cl, and 6.5 mM MgCl2 for 15 min at 4°C. RNAase A was then added to a final concentration of 0.02 mg/mL and incubated for an additional 20 s. The reactions were stopped by the addition of 3 mL of ice-cold 5% trichloroacetic acid (TCA) and filtered through nitrocellulose filters (Whatman). Retention of [^3H]Leu signified EF-Tu protection of [^3H]Leu-tRNA^Leu from nuclease digestion [22].
To determine the ability of P. aeruginosa EF-Tu to form a ternary complex with Leu-tRNA^Leu and GTP, the nuclease protection assay was used [19, 22]. The nuclease protection assay measures the formation of a ternary complex by the ability of EF-Tu to protect the 3′ end of the tRNA with the covalently attached [^3H]Leu from digestion by RNase A [45]. […] Reactions contained enough RNase A to hydrolyze over 90% of the leucine away from tRNA^Leu .

Take `Nc1nc2c(ncn2[C@@H]2O[C@H](COP(=O)(O)OP(=O)(O)O)[C@@H](O)[C@H]2O)c(=O)[nH]1` [GDP]: the “kcat obs for exchange of GDP by EF-Tu” value at P. aeruginosa EF-Tu [1] (absence of EF-Ts) amounted to 0.003 s⁻¹; on P. aeruginosa EF-Tu [1] (presence of EF-Ts 0.01 μM), 0.005 s⁻¹. Besides, the Km at P. aeruginosa EF-Tu [1] (absence of EF-Ts) was 33 µM; at P. aeruginosa EF-Tu [1] (presence of EF-Ts 0.01 μM), 2 µM. The “GDP bound more tightly than GTP” value with E. coli EF-Tu was “up to 100 fold”. In addition, the Kd at P. aeruginosa EF-Tu [2] (EF-Ts 0, 0°C, read-out: K GDP) is 0.058 µM; at P. aeruginosa EF-Tu [2] (EF-Ts 0, 23°C, read-out: K GDP), 0.038 µM; on P. aeruginosa EF-Tu [2] (EF-Ts 0, 37°C, read-out: K GDP) it was 0.072 µM; on P. aeruginosa EF-Tu [2] (EF-Ts 0.5 ×10^−3 μM, 0°C, read-out: K GDP) it was 0.043 µM; on P. aeruginosa EF-Tu [2] (EF-Ts 0.5 ×10^−3 μM, 23°C, read-out: K GDP), 0.03 µM; on P. aeruginosa EF-Tu [2] (EF-Ts 0.5 ×10^−3 μM, 37°C, read-out: K GDP) it was 0.034 µM.
Regarding `Nc1nc2c(ncn2[C@@H]2O[C@H](COP(=O)(O)OP(=O)(O)OP(=O)(O)O)[C@@H](O)[C@H]2O)c(=O)[nH]1` [GTP], the Kd on P. aeruginosa EF-Tu [2] (EF-Ts 0, 0°C, read-out: K GTP) was 0.15 µM; at P. aeruginosa EF-Tu [2] (EF-Ts 0, 23°C, read-out: K GTP), 0.123 µM; at P. aeruginosa EF-Tu [2] (EF-Ts 0, 37°C, read-out: K GTP), 0.175 µM; on P. aeruginosa EF-Tu [2] (EF-Ts 0.5 ×10^−3 μM, 0°C, read-out: K GTP), 0.156 µM; at P. aeruginosa EF-Tu [2] (EF-Ts 0.5 ×10^−3 μM, 23°C, read-out: K GTP), 0.125 µM; on P. aeruginosa EF-Tu [2] (EF-Ts 0.5 ×10^−3 μM, 37°C, read-out: K GTP), 0.19 µM. Besides, on P. aeruginosa EF-Tu [2] (P. aeruginosa EF-Tu), the “binding of GTP weaker than binding of GDP (KGTP vs KGDP)” value is recorded as “up to 6 fold”.
For the molecule “EF-Tu: recombinant elongation factor Tu from Pseudomonas aeruginosa, cloned, expressed and purified”, in the series with P. aeruginosa EF-Tu [1] (absence of EF-Ts), the “specific activity for the exchange of GDP by EF-Tu” value came to 0.0047 µmol/min/mg. The “share of the ternary complex formed that bound to the ribosome” value with P. aeruginosa ribosomes (15 min) was “approximately 90%”. Moreover, the “ribosomes with ternary complex bound to the A-site” value in the series with P. aeruginosa ribosomes (within 15 min, 37°C) is “approximately 50%”. The “EF-Tu active in ternary complex formation” value with Leu-tRNA^Leu and GTP is given as “Up to 20%”. In addition, the “EF-Tu capable of forming an EF-Tu·[3H]GDP complex (active EF-Tu)” value in the series with P. aeruginosa EF-Tu [2] (12 μM [3H]GDP, on ice 2 h) was “Approximately 50%”. Moreover, in the series with P. aeruginosa EF-Tu [2] (incubation 2 h in 50 μL reactions), the “EF-Tu forming a complex with each form of the nucleotide (GDP, GTP)” value is listed as “approximately 50%”.

B1: Pseudomonas aeruginosa elongation factor Ts (natural protein)
chain: AEITAAMVKELRERTGLGMMECKKALTAAGGDIEKAIDDMRAAGAIKAAKKAGNIAAEGSIAVKIAADNKAAVIIEVNSQTDFLALQDDFKGFVAESLEKAFNEKLTDAAPLVEAREEARLALVAKTGENVNIRRLTRVEGDVVGAYLHGHRIGVVVNLKGGNPELAKDIAMHVAASNPQFLSASEVSEEAIAKEKEIFLALNADKIAGKPENIVENMVKGRISKFLAEASLVEQPFVKNPEVKVGDLAKQAGAEIVSFVRYEVGEGIEKAEVDFAAEVAAQVAATKQ
In the case of B1, the [3H]GDP exchange by EF-Tu (0.64 uM, 1 uM GDP) with 0.05 uM EF-Ts against without EF-Ts, nitrocellulose filter binding, 15 to 120 s, 37°C in series [3] is 7 to 8 fold.
